Results taken from patent US20140163095A1, “USE OF ERIBULIN IN THE TREATMENT OF BREAST CANCER” (priority 2012, published 2014).

Tested on: subjects with locally recurrent or metastatic HER2 negative breast cancer
Test: Phase II first-line trial, safety outcomes
Method: A multi-center, single-arm, phase II clinical trial of eribulin mesylate was performed to evaluate the objective response rate (ORR) (according to RECIST v1.1) to first-line treatment with single-agent eribulin mesylate in subjects with locally recurrent or metastatic HER2 negative breast cancer. Secondary objectives included the safety and tolerability of eribulin mesylate, time to first response, duration of response (DOR), and progression free survival (PFS).

## C=C1C[C@@H]2CC[C@@]34C[C@H]5O[C@H]6[C@@H](O3)[C@H]3O[C@H](CC[C@@H]3O[C@H]6[C@H]5O4)CC(=O)C[C@@H]3[C@@H](OC)[C@@H](C[C@H](O)CN)O[C@H]3C[C@H]3O[C@@H](CC[C@@H]1O2)C[C@@H](C)C3=C.CS(=O)(=O)O [Eribulin, 11,15:18,21:24,28-Triepoxy-7,9-ethano-12,15-methano-9H,15H-furo[3,2-i]furo[2′,3′:5,6]pyrano[4,3-b][1,4]dioxacyclopentacosin-5(4H)-one, 2-[(2S)-3-amino-2-hydroxypropyl]hexacosahydro-3-methoxy-26-methyl-20,27-bis(methylene)-, (2R,3R,3aS,7R,8aS,9S,10aR,11S,12R,13aR,13bS,15S,18S,21S,24S,26R,28R,29aS)-methanesulfonate (salt)]
1/51
  incidence of markedly abnormal lab value: low platelets: 2%
1 patient
  leucopenia (treatment-related SAE): 1.8%
3/52, throughout the study
  patients with an abnormal but not clinically significant finding: 5.8%
3 patients
  Febrile neutropenia (treatment-related SAE): 5.4%
5 patients
  Treatment-related SAEs: 8.9%
6 patients
  patients who discontinued the study due to an AE: 10.7%
8/44
  incidence of markedly abnormal lab value: low lymphocytes: 18.2%
8/55
  incidence of markedly abnormal lab value: low hemoglobin: 14.5%
20 patients
  patients with dose interrupted/delayed due to treatment-related AEs: 35.7%
  patients with dose reduced due to treatment-related AEs: 35.7%
30 patients
  Treatment-related AEs leading to dose adjustment (interruption/delay, reduction, or discontinuation): 53.6%
31/54
  incidence of markedly abnormal lab value: low leukocytes: 57.4%
36 patients
  patients with a treatment-related AE with CTCAE grade ¾: 64.3%
41/53
  incidence of markedly abnormal lab value: low neutrophils: 77.4%
All grades, N = 56
  Treatment-related AE: Alopecia: 47 (83.9) n (%)
  Treatment-related AE: Anemia: 20 (35.7) n (%)
  Treatment-related AE: Constipation: 15 (26.8) n (%)
  Treatment-related AE: Diarrhea: 14 (25.0) n (%)
  Treatment-related AE: Fatigue: 34 (60.7) n (%)
  Treatment-related AE: Leukopenia: 19 (33.9) n (%)
  Treatment-related AE: Nausea: 27 (48.2) n (%)
  Treatment-related AE: Neutropenia: 40 (71.4) n (%)
  Treatment-related AE: Peripheral neuropathy: 32 (57.1) n (%)
Grade 3/4, N = 56
  Treatment-related AE: Anemia: 2 (3.6) n (%)
  Treatment-related AE: Constipation: 0 n (%)
  Treatment-related AE: Diarrhea: 0 n (%)
  Treatment-related AE: Fatigue: 1 (1.8) n (%)
  Treatment-related AE: Leukopenia: 12 (21.4) n (%)
  Treatment-related AE: Nausea: 0 n (%)
  Treatment-related AE: Neutropenia: 28 (50.0) n (%)
  Treatment-related AE: Peripheral neuropathy: 11 (19.6) n (%)
human, in vivo
  Alopecia, neutropenia, fatigue, and peripheral neuropathy (most commonly observed treatment-related AEs), each occurring in patients: > 50%
  duration of grade ¾ peripheral neuropathy (median): 2.3 months
  median time to first occurrence of peripheral neuropathy: 4 months
In words
  AE requiring drug withdrawal in the remaining discontinued patient: prolonged QT interval requiring drug withdrawal
Most common grade ¾ AE
  grade ¾ neutropenia, patients: 50%
Number of patients
  Febrile neutropenia (grade 3/4): 4 patients
Of the 6 events resulting in discontinuations
  discontinuations for which peripheral neuropathy was responsible: 5
